Laboratory results taken from PubChem BioAssay (NCI).
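All cell lines were grown in 96-well plates and treated with compound for 48 hours. At the TGI there is no net growth.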

How the values were obtained:
Experiment in all cases: DTP human tumour cell line panel, 48 h
[1] = test system: 786-0 renal
[2] = test system: A498 renal
[3] = test system: A549 NSCLC
[4] = test system: ACHN renal
[5] = test system: CAKI-1 renal
[6] = test system: CCRF-CEM leukemia
[7] = test system: COLO 205 colon
[8] = test system: DLD-1 colon
[9] = test system: DMS 114 small cell lung
[10] = test system: DMS 273 small cell lung
[11] = test system: EKVX NSCLC
[12] = test system: HCC-2998 colon
[13] = test system: HCT-116 colon
[14] = test system: HCT-15 colon
[15] = test system: HL-60(TB) leukemia
[16] = test system: HOP-18 NSCLC
[17] = test system: HOP-62 NSCLC
[18] = test system: HOP-92 NSCLC
[19] = test system: HT29 colon
[20] = test system: IGROV1 ovarian
[21] = test system: KM12 colon
[22] = test system: KM20L2 colon
[23] = test system: LXFL 529 NSCLC
[24] = test system: M14 melanoma
[25] = test system: MALME-3M melanoma
[26] = test system: MOLT-4 leukemia
[27] = test system: NCI-H226 lung
[28] = test system: NCI-H23 lung
[29] = test system: NCI-H460 lung
[30] = test system: NCI-H522 lung
[31] = test system: OVCAR-3 ovarian
[32] = test system: OVCAR-4 ovarian
[33] = test system: OVCAR-8 ovarian
[34] = test system: RXF 393 renal
[35] = test system: SF-268 CNS
[36] = test system: SF-295 CNS
[37] = test system: SF-539 CNS
[38] = test system: SK-MEL-2 melanoma
[39] = test system: SK-MEL-28 melanoma
[40] = test system: SK-MEL-5 melanoma
[41] = test system: SK-OV-3 ovarian
[42] = test system: SN12C renal
[43] = test system: SNB-19 CNS
[44] = test system: SNB-75 CNS
[45] = test system: SNB-78 CNS
[46] = test system: SR leukemia
[47] = test system: SW-620 colon
[48] = test system: TK-10 renal
[49] = test system: U251 CNS
[50] = test system: UACC-257 melanoma
[51] = test system: UACC-62 melanoma
[52] = test system: UO-31 renal
[53] = test system: XF 498 CNS
[54] = test system: K-562 leukemia
[55] = test system: LOX IMVI melanoma
[56] = test system: M19-MEL melanoma
[57] = test system: OVCAR-5 ovarian
[58] = test system: RPMI-8226 leukemia
[59] = test system: RXF-631 renal

NNC(=O)N/N=C1\C(=O)N(c2ccc(Cl)c(Cl)c2)C(=O)C(=O)C1c1nc2ccccc2s1 (centres undefined)
TGI [1]: > 100 µM | TGI [2]: > 100 µM | TGI [3]: > 100 µM | TGI [4]: > 100 µM | TGI [5]: > 100 µM | TGI [6]: > 100 µM | TGI [7]: > 100 µM | TGI [8]: > 100 µM | TGI [9]: > 100 µM | TGI [10]: > 100 µM | TGI [11]: > 100 µM | TGI [12]: > 100 µM | TGI [13]: > 100 µM | TGI [14]: > 100 µM | TGI [15]: > 100 µM | TGI [16]: > 100 µM | TGI [17]: > 100 µM | TGI [18]: > 100 µM | TGI [19]: > 100 µM | TGI [20]: > 100 µM | TGI [21]: > 100 µM | TGI [22]: > 100 µM | TGI [23]: > 100 µM | TGI [24]: > 100 µM | TGI [25]: > 100 µM | TGI [26]: > 100 µM | TGI [27]: > 100 µM | TGI [28]: > 100 µM | TGI [29]: > 100 µM | TGI [30]: > 100 µM | TGI [31]: > 100 µM | TGI [32]: > 100 µM | TGI [33]: > 100 µM | TGI [34]: > 100 µM | TGI [35]: > 100 µM | TGI [36]: > 100 µM | TGI [37]: > 100 µM | TGI [38]: > 100 µM | TGI [39]: > 100 µM | TGI [40]: > 100 µM | TGI [41]: > 100 µM | TGI [42]: > 100 µM | TGI [43]: > 100 µM | TGI [44]: > 100 µM | TGI [45]: > 100 µM | TGI [46]: > 100 µM | TGI [47]: > 100 µM | TGI [48]: > 100 µM | TGI [49]: > 100 µM | TGI [50]: > 100 µM | TGI [51]: > 100 µM | TGI [52]: > 100 µM | TGI [53]: > 100 µM

Cc1ccc(NC(=O)/C(Cl)=C(/Cl)C(=O)O)cc1
TGI [1]: 32.6 µM | TGI [2]: > 100 µM | TGI [3]: > 100 µM | TGI [4]: 30.1 µM | TGI [5]: 31.1 µM | TGI [6]: 5.75 µM | TGI [7]: 20.3 µM | TGI [8]: 33.5 µM | TGI [9]: 34.2 µM | TGI [10]: 41.7 µM | TGI [11]: 31.2 µM | TGI [12]: 34.3 µM | TGI [13]: 28.2 µM | TGI [14]: 28.9 µM | TGI [15]: 4.36 µM | TGI [16]: 34.7 µM | TGI [17]: > 100 µM | TGI [18]: 32.6 µM | TGI [19]: 35 µM | TGI [20]: 61.1 µM | TGI [54]: 23.5 µM | TGI [21]: 34.6 µM | TGI [22]: 40.3 µM | TGI [55]: 30.9 µM | TGI [23]: 26.6 µM | TGI [24]: 28.7 µM | TGI [56]: 29.5 µM | TGI [25]: 29.3 µM | TGI [26]: 43.5 µM | TGI [27]: > 100 µM | TGI [28]: 31.8 µM | TGI [29]: > 100 µM | TGI [30]: 6.11 µM | TGI [31]: 32.4 µM | TGI [32]: 33.1 µM | TGI [57]: 37.6 µM | TGI [58]: 49.8 µM | TGI [34]: 45.8 µM | TGI [59]: 49.8 µM | TGI [35]: 42 µM | TGI [36]: 96.8 µM | TGI [38]: 37.6 µM | TGI [39]: 33 µM | TGI [40]: 55.2 µM | TGI [41]: 35.8 µM | TGI [42]: 32.5 µM | TGI [43]: > 100 µM | TGI [44]: 34.1 µM | TGI [45]: 53.4 µM | TGI [46]: 53.6 µM | TGI [47]: 29.9 µM | TGI [48]: 33 µM | TGI [49]: 30.9 µM | TGI [50]: 44.2 µM | TGI [51]: 29.7 µM | TGI [52]: 31.8 µM
